In brackets after ≈: the same amount, converted by molar mass.
What was measured:
[1] = system: Salmonella typhi; experiment: Antibacterial activity against Salmonella typhi MTCC 98 by broth microdilution assay method; type: functional, Salmonella enterica subsp. enterica serovar Typhi; conditions: Salmonella enterica
[2] = system: Bacillus subtilis; experiment: Antibacterial activity against Bacillus subtilis MTCC 441 by broth microdilution assay method; type: functional
[3] = system: Plasmodium falciparum; experiment: Antimalarial activity against Plasmodium falciparum; type: functional
[4] = system: Clostridium tetani; experiment: Antibacterial activity against Clostridium tetani MTCC 449 by broth microdilution assay method; type: functional
[5] = system: Escherichia coli; experiment: Antibacterial activity against Escherichia coli MTCC 443 by broth microdilution assay method; type: functional
[6] = system: Vibrio cholerae; experiment: Antibacterial activity against Vibrio cholerae MTCC 3906 by broth microdilution assay method; type: functional
[7] = system: Mycobacterium tuberculosis; experiment: Antitubercular activity against Mycobacterium tuberculosis H37Rv at 6 ug/mL; type: functional
[8] = system: Streptococcus pneumoniae; experiment: Antibacterial activity against Streptococcus pneumoniae MTCC 1936 by broth microdilution assay method; type: functional

| Structure (SMILES) | MIC [1] | MIC [2] | IC50 [3] | MIC [4] | MIC [5] | MIC [6] | inhibition at 6 µg/mL [7] | MIC [8] |
| --- | --- | --- | --- | --- | --- | --- | --- | --- |
| O=C1CCSC(c2ccc(O)cc2)N1CCNc1ccnc2cc(Cl)ccc12 (configuration not stated) | 250 µg/mL (≈ 604 µM) | 62.5 µg/mL (≈ 151 µM) | 1.78 µg/mL (≈ 4.3 µM) | 250 µg/mL (≈ 604 µM) | 500 µg/mL (≈ 1210 µM) | 250 µg/mL (≈ 604 µM) | 74% | 250 µg/mL (≈ 604 µM) |
| O=C1CCSC(c2ccc(F)cc2)N1CCCCNc1ccnc2cc(Cl)ccc12 (configuration not stated) | 62.5 µg/mL (≈ 141 µM) | 100 µg/mL (≈ 225 µM) | 0.092 µg/mL (≈ 0.207 µM) | 125 µg/mL (≈ 282 µM) | 125 µg/mL (≈ 282 µM) | 62.5 µg/mL (≈ 141 µM) | 65% | 100 µg/mL (≈ 225 µM) |
| Cc1ccc(C2SCCC(=O)N2CCCNc2ccnc3cc(Cl)ccc23)cc1 (configuration not stated) | 500 µg/mL (≈ 1170 µM) | 125 µg/mL (≈ 293 µM) | 2.2 µg/mL (≈ 5.16 µM) | 500 µg/mL (≈ 1170 µM) | 250 µg/mL (≈ 587 µM) | 500 µg/mL (≈ 1170 µM) | 41% | 250 µg/mL (≈ 587 µM) |
| O=C1CCSC(c2ccccc2)N1CCCNc1ccnc2cc(Cl)ccc12 (configuration not stated) | 500 µg/mL (≈ 1210 µM) | 500 µg/mL (≈ 1210 µM) | 3.5 µg/mL (≈ 8.5 µM) | 500 µg/mL (≈ 1210 µM) | 500 µg/mL (≈ 1210 µM) | 500 µg/mL (≈ 1210 µM) | 47% | 500 µg/mL (≈ 1210 µM) |
| O=C1CCSC(c2cccc(Cl)c2)N1CCCNc1ccnc2cc(Cl)ccc12 (configuration not stated) | 250 µg/mL (≈ 560 µM) | 125 µg/mL (≈ 280 µM) | 1.62 µg/mL (≈ 3.63 µM) | 250 µg/mL (≈ 560 µM) | 250 µg/mL (≈ 560 µM) | 250 µg/mL (≈ 560 µM) | 55% | 250 µg/mL (≈ 560 µM) |
| O=C1CCSC(c2cccc(F)c2)N1CCCCNc1ccnc2cc(Cl)ccc12 (configuration not stated) | 100 µg/mL (≈ 225 µM) | 250 µg/mL (≈ 563 µM) | 1.31 µg/mL (≈ 2.95 µM) | 125 µg/mL (≈ 282 µM) | 125 µg/mL (≈ 282 µM) | 125 µg/mL (≈ 282 µM) | 55% | 250 µg/mL (≈ 563 µM) |
| COc1ccc(C2SCCC(=O)N2NC(=O)c2cnc3c(C(F)(F)F)cccc3c2O)cc1 (configuration not stated) | 125 µg/mL (≈ 262 µM) | 125 µg/mL (≈ 262 µM) | 1.45 µg/mL (≈ 3.04 µM) | 250 µg/mL (≈ 524 µM) | 250 µg/mL (≈ 524 µM) | 250 µg/mL (≈ 524 µM) | 70% | 250 µg/mL (≈ 524 µM) |
| COc1ccc(C2SCCC(=O)N2CCCNc2ccnc3cc(Cl)ccc23)cc1 (configuration not stated) | 500 µg/mL (≈ 1130 µM) | 125 µg/mL (≈ 283 µM) | 0.52 µg/mL (≈ 1.18 µM) | 250 µg/mL (≈ 566 µM) | 250 µg/mL (≈ 566 µM) | 250 µg/mL (≈ 566 µM) | 57% | 125 µg/mL (≈ 283 µM) |
| COc1cccc(C2SCCC(=O)N2CCCNc2ccnc3cc(Cl)ccc23)c1 (configuration not stated) | 250 µg/mL (≈ 566 µM) | 250 µg/mL (≈ 566 µM) | 1.87 µg/mL (≈ 4.23 µM) | 500 µg/mL (≈ 1130 µM) | 250 µg/mL (≈ 566 µM) | 500 µg/mL (≈ 1130 µM) | 51% | 250 µg/mL (≈ 566 µM) |
| Cc1ccc(C2SCCC(=O)N2NC(=O)c2cnc3c(C(F)(F)F)cccc3c2O)cc1 (configuration not stated) | 250 µg/mL (≈ 542 µM) | 250 µg/mL (≈ 542 µM) | 1.56 µg/mL (≈ 3.38 µM) | 250 µg/mL (≈ 542 µM) | 500 µg/mL (≈ 1080 µM) | 500 µg/mL (≈ 1080 µM) | 60% | 500 µg/mL (≈ 1080 µM) |
| O=C1CCSC(c2cccc(F)c2)N1CCNc1ccnc2cc(Cl)ccc12 (configuration not stated) | 250 µg/mL (≈ 601 µM) | 250 µg/mL (≈ 601 µM) | 1.05 µg/mL (≈ 2.52 µM) | 250 µg/mL (≈ 601 µM) | 62.5 µg/mL (≈ 150 µM) | 250 µg/mL (≈ 601 µM) | 66% | 125 µg/mL (≈ 301 µM) |
| O=C1CCSC(c2ccc(Br)cc2)N1CCCCNc1ccnc2cc(Cl)ccc12 (configuration not stated) | 62.5 µg/mL (≈ 124 µM) | 100 µg/mL (≈ 198 µM) | 0.064 µg/mL (≈ 0.127 µM) | 250 µg/mL (≈ 495 µM) | 62.5 µg/mL (≈ 124 µM) | 125 µg/mL (≈ 248 µM) | 82% | 100 µg/mL (≈ 198 µM) |
| O=C(NN1C(=O)CCSC1c1cccc(Cl)c1)c1cnc2c(C(F)(F)F)cccc2c1O (configuration not stated) | 250 µg/mL (≈ 519 µM) | 125 µg/mL (≈ 259 µM) | 1.2 µg/mL (≈ 2.49 µM) | 250 µg/mL (≈ 519 µM) | 125 µg/mL (≈ 259 µM) | 250 µg/mL (≈ 519 µM) | 71% | 250 µg/mL (≈ 519 µM) |
| O=C1CCSC(c2cccc(F)c2)N1CCCNc1ccnc2cc(Cl)ccc12 (configuration not stated) | 125 µg/mL (≈ 291 µM) | 125 µg/mL (≈ 291 µM) | 1.12 µg/mL (≈ 2.6 µM) | 250 µg/mL (≈ 581 µM) | 250 µg/mL (≈ 581 µM) | 250 µg/mL (≈ 581 µM) | 52% | 125 µg/mL (≈ 291 µM) |
| CCn1cc(C(=O)O)c(=O)c2cc(F)c(N3CCNCC3)cc21 [NORFLOXACIN] | 10 µg/mL (≈ 31.3 µM) | 100 µg/mL (≈ 313 µM) |  | 50 µg/mL (≈ 157 µM) | 10 µg/mL (≈ 31.3 µM) | 10 µg/mL (≈ 31.3 µM) |  | 10 µg/mL (≈ 31.3 µM) |
| O=C(NN1C(=O)CCSC1c1ccccc1)c1cnc2c(C(F)(F)F)cccc2c1O (configuration not stated) | 500 µg/mL (≈ 1120 µM) | 250 µg/mL (≈ 559 µM) | 2.1 µg/mL (≈ 4.69 µM) | 500 µg/mL (≈ 1120 µM) | 500 µg/mL (≈ 1120 µM) | 500 µg/mL (≈ 1120 µM) | 55% | 500 µg/mL (≈ 1120 µM) |
| O=C(NN1C(=O)CCSC1c1ccc(O)cc1)c1cnc2c(C(F)(F)F)cccc2c1O (configuration not stated) | 125 µg/mL (≈ 270 µM) | 125 µg/mL (≈ 270 µM) | 1.58 µg/mL (≈ 3.41 µM) | 250 µg/mL (≈ 539 µM) | 250 µg/mL (≈ 539 µM) | 125 µg/mL (≈ 270 µM) | 79% | 250 µg/mL (≈ 539 µM) |
| Cc1ccc(C2SCCC(=O)N2CCCCNc2ccnc3cc(Cl)ccc23)cc1 (configuration not stated) | 500 µg/mL (≈ 1140 µM) | 250 µg/mL (≈ 568 µM) | 2.33 µg/mL (≈ 5.3 µM) | 250 µg/mL (≈ 568 µM) | 500 µg/mL (≈ 1140 µM) | 250 µg/mL (≈ 568 µM) | 40% | 500 µg/mL (≈ 1140 µM) |
